± gives the expanded uncertainty stated by the source.
What was measured:
[1] = for mass density: 298.15 K, 101.33 kPa
[2] = Boiling temperature at pressure P; details: 101 kPa; Liquid; Distillation
[3] = refractive index (Na D-line) (dimensionless); details: 298.15 K; 101.33 kPa; Liquid; Standard Abbe refractometry

Compound	mass density ([1]; Crystal, Pycnometric method)	Normal melting temperature ([1]; Crystal, visual observation)	mass density ([1]; Liquid, Vibrating tube method)	Boiling temperature at pressure P [2]	refractive index [3]
Oc1ccccc1O [1,2-benzenediol]	1346 ± 3 kg/m3	105.70 ± 1.1 °C	–	–	–
CC(=O)CC(C)C [4-methylpentan-2-one]	–	–	799 ± 2 kg/m3	116.60 ± 0.2 °C	1.3965 ± 0.0008
